This is an account of results in publication PMC5522311, “Adapting AlphaLISA high throughput screen to discover a novel small-molecule inhibitor targeting protein arginine methyltransferase 5 in pancreatic and colorectal cancers” (Oncotarget, 2017).

The IC50 is the point on the concentration scale where inhibition reaches its midpoint.

For this experiment, the target named is T1, protein arginine methyltransferase 5 (PRMT5) (Homo sapiens, UniProt O14744).
T1 construct: Flag-tagged WT-PRMT5 purified from 293 cells with anti-Flag-M2 beads
Nature of the experiment: AlphaLISA methyltransferase assay (biotinylated histone H4 R3 symmetric dimethylation). It is filed as biochemical. For orientation: In Alpha technology, singlet oxygen from a donor bead excites a nearby acceptor bead.

T1 sequence (O14744 2-637): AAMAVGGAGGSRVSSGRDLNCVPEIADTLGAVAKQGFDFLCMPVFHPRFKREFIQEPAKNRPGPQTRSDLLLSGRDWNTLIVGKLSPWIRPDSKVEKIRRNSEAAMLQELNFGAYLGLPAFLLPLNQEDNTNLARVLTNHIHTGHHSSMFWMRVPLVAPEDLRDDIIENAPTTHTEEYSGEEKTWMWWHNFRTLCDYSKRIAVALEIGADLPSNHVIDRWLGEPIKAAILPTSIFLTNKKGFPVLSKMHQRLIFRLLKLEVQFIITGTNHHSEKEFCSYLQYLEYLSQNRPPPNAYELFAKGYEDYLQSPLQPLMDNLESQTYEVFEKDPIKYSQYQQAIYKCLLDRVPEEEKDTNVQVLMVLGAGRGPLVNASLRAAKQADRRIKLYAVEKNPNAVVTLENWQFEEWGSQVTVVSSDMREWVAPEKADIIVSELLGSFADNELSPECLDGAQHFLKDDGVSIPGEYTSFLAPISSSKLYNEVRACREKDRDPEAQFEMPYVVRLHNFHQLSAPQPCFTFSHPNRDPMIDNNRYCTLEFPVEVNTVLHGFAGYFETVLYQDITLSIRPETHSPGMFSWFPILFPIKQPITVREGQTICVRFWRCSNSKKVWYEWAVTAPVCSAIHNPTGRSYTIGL

Compound `Cc1ccc(Nc2nc(NCCN(C)C)nc3c2cnn3-c2ccccc2)cc1C` [PR5-LL-CM01] displayed an IC50 of 7.5 µM.
